{"source": "paper PMC12789660", "about": "“Mycobacterial respiratory chain enzymes and growth are inhibited by decylubiquinone” (Communications Biology, 2025)", "key": {"[1]": {"target": "T1, QcrB subunit of CIII2 (CIII2CIV2 supercomplex), AAA variant (Mycolicibacterium smegmatis, UniProt A0R052, F153A/M305A/M337A)", "T1 construct": "gene MSMEG_4263", "assay": "biochemical"}, "[2]": {"target": "T2, QcrB subunit of CIII2 (CIII2CIV2 supercomplex) (Mycolicibacterium smegmatis, UniProt A0R052)", "assay": "DMNQH2 oxidation:O2 reduction activity, Clark-type oxygen electrode", "type": "biochemical", "parameters": "gene MSMEG_4263; intact purified CIII2CIV2 supercomplex, C-terminally FLAG-tagged on QcrB; with QcrA (Rieske), QcrC and CIV subunits of the CIII2CIV2 supercomplex"}, "cytochrome bd-I": {"target": "T3, cytochrome bd-I (Mycolicibacterium smegmatis, UniProt A0QXA8)", "T3 construct": "gene MSMEG_3233; purified cytochrome bd-I (cydAB, Strep-tagged on CydB) in DDM; with CydB", "T3 sequence (A0QXA8 1-487)": "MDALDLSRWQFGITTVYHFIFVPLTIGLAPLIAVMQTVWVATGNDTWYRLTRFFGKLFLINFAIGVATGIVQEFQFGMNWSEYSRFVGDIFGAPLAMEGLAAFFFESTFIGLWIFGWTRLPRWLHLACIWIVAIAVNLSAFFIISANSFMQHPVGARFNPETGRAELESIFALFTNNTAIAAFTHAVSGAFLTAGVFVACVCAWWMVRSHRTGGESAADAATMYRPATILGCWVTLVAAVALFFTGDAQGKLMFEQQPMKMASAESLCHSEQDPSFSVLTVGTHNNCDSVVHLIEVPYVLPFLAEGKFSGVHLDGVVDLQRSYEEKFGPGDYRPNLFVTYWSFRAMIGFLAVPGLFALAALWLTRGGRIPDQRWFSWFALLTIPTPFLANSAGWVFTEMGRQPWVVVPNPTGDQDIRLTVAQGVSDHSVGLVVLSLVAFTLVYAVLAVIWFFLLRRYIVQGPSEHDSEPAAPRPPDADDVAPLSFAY", "T3 sequence (A0QXA7 1-350 partner)": "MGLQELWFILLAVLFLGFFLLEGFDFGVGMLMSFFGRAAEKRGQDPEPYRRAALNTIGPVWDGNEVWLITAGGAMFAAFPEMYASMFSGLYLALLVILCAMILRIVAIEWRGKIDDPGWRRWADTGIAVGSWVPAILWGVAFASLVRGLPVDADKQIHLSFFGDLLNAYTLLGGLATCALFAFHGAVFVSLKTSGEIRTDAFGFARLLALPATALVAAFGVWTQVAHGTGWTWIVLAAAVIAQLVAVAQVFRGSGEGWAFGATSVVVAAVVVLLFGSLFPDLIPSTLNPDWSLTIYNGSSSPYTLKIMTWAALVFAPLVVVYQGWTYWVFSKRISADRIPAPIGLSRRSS", "assay": "O2 reduction rate, Clark-type electrode; turnover at […]", "type": "biochemical"}, "[3]": {"target": "T2, QcrB subunit of CIII2 (CIII2CIV2 supercomplex)", "assay": "O2 reduction rate, Clark-type oxygen electrode; turnover […] s^−[…] at […]", "type": "biochemical", "parameters": "gene MSMEG_4263; intact purified CIII2CIV2 supercomplex, C-terminally FLAG-tagged on QcrB; with QcrA (Rieske), QcrC and CIV subunits of the CIII2CIV2 supercomplex"}, "[4]": {"target": "T2, QcrB subunit of CIII2 (CIII2CIV2 supercomplex)", "assay": "cryo-EM structure, […] Å; DCQ modeled in oxidized state at […] occupancy (shared with MQ)", "type": "binding", "parameters": "gene MSMEG_4263; intact CIII2CIV2 supercomplex purified in GDN, C-terminally FLAG-tagged on QcrB; with QcrA (Rieske), QcrC and CIV subunits of the CIII2CIV2 supercomplex"}}}
{"smiles": "CCCCCCCCCCc1c(C)c(O)c(OC)c(OC)c1O", "note": "[DCQH2]", "values": [{"measurement": "IC50", "setting": "[1]", "value": "~130", "unit": "µM"}, {"measurement": "IC50", "setting": "[2]", "value": "~70", "unit": "µM"}]}
{"smiles": "Cc1c(C)c(O)c2ccccc2c1O", "note": "[DMNQH2]", "values": [{"measurement": "O2 reduction rate, Clark-type electrode; turnover at 300 μM", "setting": "cytochrome bd-I", "value": "18 ± 1", "unit": "s⁻¹"}, {"measurement": "O2 reduction rate, Clark-type oxygen electrode; turnover 80 ± 10 s^-1 at 100 μM", "setting": "[3]", "value": "80 ± 10", "unit": "s⁻¹"}]}
{"smiles": "CCCCCCCCCCC1=C(C)C(=O)C(OC)=C(OC)C1=O", "note": "[DCQ, decylubiquinone]", "values": [{"measurement": "cryo-EM structure, 2.5 Å; DCQ modeled in oxidized state at 50% occupancy (shared)", "setting": "[4]", "value": "The DCQ density is seen in the more distal Qo1b position, i.e., the same as that of the native MQ"}]}
